Test results: patent US4748161A, “Triterpenyl esters of organic acids and hypolipidemic agents composed of them” (Amano Pharmaceutical Co., Ltd., priority 1984, dated 1988)
Where “and” joins values, the source holds several entries; their conditions need not be identical. Identical values can stand only once.

System: serum lipids and serum lipid hydroperoxide
Test: Pharmacological test method A for anti-hyperlipidemic activity (serum lipids, 2 weeks feeding)
Format: in vivo, male Wistar strain rats
Details: for AI [(TC - HDL-C)/(HDL-C)] / HDL-C in serum / LPO in serum / PL in serum / TC in serum / TG in serum: 1% in hyperlipidemic diet, 2 weeks
Summary of the method: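 Male Wistar rats (100±lg, 10 per group) fed 10 g/day for 2 weeks of a 1% cholesterol/0.5% cholic acid diet, test groups with 1% each of cycloartenol, 24-methylenecycloartanol and cyclobranol. After 16 h fast, aortic blood serum assayed enzymatically/colorimetrically for TC, HDL-C, TG, PL, LPO.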

Compound | AI [(TC - HDL-C)/(HDL-C)] | HDL-C in serum | LPO in serum | PL in serum | TC in serum | TG in serum | AI % of diff. (versus control group) | AI Diff. (versus control group) | HDL-C % of diff. (versus control group) | HDL-C Diff. (versus control group) | LPO % of diff. (versus control group) | LPO Diff. (versus control group) | PL % of diff. (versus control group) | PL Diff. (versus control group) [mg/dL] | TC % of diff. (versus control group) | TC Diff. (versus control group) [mg/dL] | TG % of diff. (versus control group) | TG Diff. (versus control group) | AI Diff. (Table 2, versus control group)
CC(C)=CCCC(C)C1CCC2(C)C3CCC4C(C)(C)C(OC(=O)c5ccc(O)cc5)CCC45CC35CCC12C (stereo not drawn) [Example 10, cycloartenyl-p-hydroxybenzoate] | 1.543 | 57.6 mg/dL | 1.73 nmol/mL | 123.3 mg/dL | 146.5 mg/dL | 27.3 mg/dL | -12.7% | -0.224 | -4.3% | -2.6 mg/dL | -31.6% | -0.80 nmol/mL | -9.8% | -13.4 | -12.1% | -20.1 | +0.4% | +0.1 mg/dl | –
COc1cc(C(=O)OC2CCC34CC35CCC3(C)C(C(C)CCC=C(C)C)CCC3(C)C5CCC4C2(C)C)ccc1O (stereo not drawn) [Example 29, cycloartenyl-4-hydroxy-3-methoxybenzoate] | 0.611 | 101.0 mg/dL | 1.95 nmol/mL | 160.6 mg/dL | 162.7 mg/dL | 32.7 mg/dL | -39.0% | -0.391 | +5.0% | +4.8 mg/dl | -16.3% | -0.38 nmol/mL | -11.2% | -20.3 | -15.5% | -29.9 | -1.5% | -0.5 mg/dL | –
Cycloartenyl-3,4-dipropionyloxycinnamate [Example 3] | 1.605 | 76.8 mg/dL | 2.40 nmol/mL | 167.0 mg/dL | 200.1 mg/dL | 33.3 mg/dL | +5.8% | – | -5.8% | -4.7 mg/dL | +5.8% | +0.13 nmol/ml | -3.8% | -6.6 | -2.4% | -5.0 | -2.9% | -1.0 mg/dL | +0.088 mg/dl
cycloartenyl-3,4-dihydroxycinnamate [Example 2] | 0.860 and 1.180 | 90.3 mg/dL and 89.2 mg/dL | 1.98 nmol/mL and 2.05 nmol/mL | 168.2 mg/dL and 170.2 mg/dL | 168.0 mg/dL and 194.5 mg/dL | 30.6 mg/dL and 41.3 mg/dL | – | -0.504 | – | – | -12.8% and -11.2% | – | -3.1% and -5.0% | – | -18.1% and -10.4% | – | -10.9% and -3.5% | – | -0.657 mg/dL
CC(C)=C(C)CCC(C)C1CCC2(C)C3CCC4C(C)(C)C(OC(=O)C=Cc5ccc(N)cc5)CCC45CC35CCC12C (stereo not drawn) [Example 104, cyclobranyl ester of p-aminocinnamic acid] | 3.205 | 48.7 mg/dL | 2.01 nmol/mL | 143.7 mg/dL | 204.8 mg/dL | 27.4 mg/dL | -59.1% | -4.635 | +32.0% | +11.8 mg/dl | -28.2% | -0.79 nmol/mL | -13.2% | -21.9 | -37.2% | -121.4 | -19.4% | -6.6 mg/dL | –
COc1cc(C=CC(=O)OC2CCC34CC35CCC3(C)C(C(C)CCC(C)=C(C)C)CCC3(C)C5CCC4C2(C)C)ccc1O (stereo not drawn) [Example 100-2, cyclobranyl-4-hydroxy-3-methoxycinnamate] | 0.772 | 94.1 mg/dL | 1.59 nmol/mL | 143.0 mg/dL | 166.7 mg/dL | 21.6 mg/dL | -49.1% | -0.745 | +18.5% | +15.1 mg/dl | -29.8% | -0.68 nmol/mL | -17.6% | -30.6 | -18.7% | -38.4 | -37.0% | -12.7 mg/dL | –
CC(C)=C(C)CCC(C)C1CCC2(C)C3CCC4C(C)(C)C(OC(=O)c5ccc(O)c(O)c5)CCC45CC35CCC12C (stereo not drawn) [Example 39, cyclobranyl-3,4-dihydroxybenzoate] | 0.803 | 98.1 mg/dL | 1.99 nmol/mL | 155.1 mg/dL | 176.9 mg/dL | 39.8 mg/dL | -52.3% | -0.881 | +21.2% | +17.2 mg/dl | -14.0% | -0.32 nmol/mL | -13.7% | -24.6 | -18.5% | -40.2 | -6.9% | -3.0 mg/dL | –
C=C(CCC(C)C1CCC2(C)C3CCC4C(C)(C)C(OC(=O)C=Cc5ccc(OC(C)=O)cc5)CCC45CC35CCC12C)C(C)C (stereo not drawn) [Example 83, 24-Methylenecycloartanyl ester of p-acetoxycinnamic acid] | 1.059 | 93.3 mg/dL | 2.02 nmol/mL | 162.1 mg/dL | 192.1 mg/dL | 41.1 mg/dL | -37.1% | -0.625 | +15.3% | +12.4 mg/dl | -12.7% | -0.29 nmol/mL | -9.8% | -17.6 | -11.5% | -25.0 | -4.0% | -1.7 mg/dL | –
CC(C)=CCCC(C)C1CCC2(C)C3CCC4C(C)(C)C(OC(=O)c5cccc(O)c5)CCC45CC35CCC12C (stereo not drawn) [Example 12, cycloartenyl-m-hydroxybenzoate] | 1.571 | 58.5 mg/dL | 2.03 nmol/mL | 140.4 mg/dL | 150.4 mg/dL | 24.0 mg/dL | -14.9% | -0.276 | -0.3% | -0.2 mg/dL | -13.2% | -0.31 nmol/mL | -5.4% | -8.0 | -10.0% | -16.7 | -3.2% | -0.8 mg/dL | –
CC(C)=C(C)CCC(C)C1CCC2(C)C3CCC4C(C)(C)C(OC(=O)c5ccccc5O)CCC45CC35CCC12C (stereo not drawn) [Example 41, cyclobranyl-o-hydroxybenzoate] | 0.890 | 92.9 mg/dL | 2.01 nmol/mL | 156.7 mg/dL | 175.6 mg/dL | 41.5 mg/dL | -47.1% | -0.794 | +14.8% | +12.0 mg/dl | -13.0% | -0.30 nmol/mL | -12.8% | -23.0 | 19.1% | -41.5 | -3.0% | -1.3 mg/dL | –
CCOc1cc(C=CC(=O)OC2CCC34CC35CCC3(C)C(C(C)CCC(C)=C(C)C)CCC3(C)C5CCC4C2(C)C)ccc1O (stereo not drawn) [Example 71, cyclobranyl-3-ethoxy-4-hydroxycinnamate] | 0.523 | 106.0 mg/dL | 1.96 nmol/mL | 157.7 mg/dL | 161.4 mg/dL | 32.9 mg/dL | -47.8% | -0.479 | +10.2% | +9.8 mg/dl | -15.9% | -0.37 nmol/mL | -12.8% | -23.2 | 16.2% | -31.2 | -2.8% | -0.9 mg/dL | –
C=C(CCC(C)C1CCC2(C)C3CCC4C(C)(C)C(OC(=O)C=Cc5ccc(O)c(OC)c5)CCC45CC35CCC12C)C(C)C (stereo not drawn) [Example 100-3, 24-methylenecycloartanyl-4-hydroxy-3-methoxycinnamate] | 1.393 | 73.8 mg/dL | 1.89 nmol/mL | 152.9 mg/dL | 176.6 mg/dL | 35.1 mg/dL | -8.2% | -0.124 | -9.4% | -7.7 mg/dL | -16.7% | -0.38 nmol/mL | -11.9% | -20.7 | -13.9% | -28.5 | +2.3% | +0.8 mg/dl | –
